Here are results for two substances from patent publication US20170246137A1, “SULFESTROL FOR TREATING CANCER” (CHAMAELEO PHARMA BVBA, priority 2012, published 2017).

Data set [1] deals with platelet-rich plasma (PRP). The experiment in a line: Platelet-aggregation-inducing effects in platelet-rich plasma, absorbance 630 nm. The note with it: 7 minutes, human PRP. In kind it is cell-based. How it is done:
Blood necessary to generate PRP was obtained from 4 healthy human volunteers. 100 ml of fresh venous blood from each donor was isolated directly into tubes containing 1/10th volume of the anti-coagulant Tri-Sodium Citrate (3.2% w/v). The blood and anti-coagulant were immediately mixed and the final concentration of Tri-Sodium Citrate was 0.0106 M.
PRP was prepared by centrifugation of anti-coagulated blood at 180 g for 10 minutes at room temperature. The cloudy yellow supernatant containing the platelets was removed and placed into a clean polypropylene tube. Platelet-poor plasma (PPP) was prepared by centrifuging the remaining sample at 1,200 g for 20 minutes at room temperature. The PRP was adjusted to a suitable platelet count and absorbance at 630 nm by addition of PPP.
All three compounds were dissolved in 100% DMSO to give a stock concentration of 60 mM. […] […] 100 nM gamma thrombin (Cambridge bioscience) was used as control for platelet aggregation. 90 μl aliquots of PRP were added to 96 wells plates. A baseline absorbance reading was taken at 630 nm. 5 μl of the compounds and gamma thrombin control was added to the appropriate PRP.
The plates were incubated at room temperature for 7 minutes on a plate shaker with continuous shaking. A second A630 nm reading was made after the 7 minutes incubation to measure any platelet aggregation induced by the compounds.

Data set [2] is described as follows: In vitro metabolism in human liver microsomes (STS and CYP). In kind it is in vitro ADME. Details: Clint: unit not given here. As for the experimental part: In vitro metabolism pathways of DES, Mono-Sulfestrol and Di-Sulfestrol in human liver microsomes were investigated.
Special emphasis was put on desulfatation by steroid sulfatase (STS) and oxidation by cytochrome P (CYP) metabolism. Liver microsomes (Celsis in vitro Technologies) were used at a concentration of 0.5 mg/ml in a volume of 600 μl phosphate buffer pH 7.4. Estrone-3-sulfate was used as positive control.
5 μM of each compound (test and control compound) was added to the liver microsomes and the mixture was incubated at 37° C. for 5, 10, 20, 30, 50, 90 and 120 minutes. After incubation, aliquots of 45 μl were taken which were subsequently quenched with 150 μl ice cold methanol. Aliquots were incubated ≧1 h at −20° C. for protein precipitation. After precipitation, samples were centrifuged and remaining supernatant was used for analysis with LC-MS/MS. Half life of the compounds, speed of metabolism or intrinsic clearance (Clint), and contribution to metabolism of CYP and STS metabolism were calculated based on the data obtained at each time point.

The nature of data set [3]: Concentration of Mono-Sulfestrol in pooled plasma samples, LC-UV quantification. Format: in vivo, male Sprague Dawley rats. The note with it: 10 mg/kg of the labelled compound, rat, pooled 0.5-8 hrs. As for the experimental part:
The concentration of Mono-Sulfestrol in the pooled samples described in Example 6 was quantified by LC-UV quantification.
A calibration standard solution was prepared as 10,000 ng/mL by adding an appropriate amount of Mono-Sulfestrol into 20% acetonitrile/0.1% formic acid in water. The peak area of the standard solution and the sample were measured with the wavelength set at 200 to 360 nm. The concentration levels of Mono-Sulfestrol were estimated using peak area (Area) of the standard and unknown samples and concentration of the standard (Concstd) by the following equation:
Areaunknown/Areastd=Concunknown/Concstd
Concunknown=Concstd·(Areaunknown/Areastd)

Data set [4] is described as follows: Estrogenic activity: body weight and plasma cholesterol levels. In kind it is in vivo, male Sprague-Dawley rats. The conditions noted are these: for Mean bodyweight: in g (unit assumed). As for the experimental part: Estrogenic activity was determined by measuring body weight and plasma cholesterol levels.
Each animal was dosed three times a day with vehicle or test compound (1st dose 7:30-8:00, 2nd dose 12:30-13:00, 3rd dose 17:00-17:30) for 14 consecutive days.
After 14 days treatment, blood was collected from the animals via cardiac puncture 4 hrs past final dosing to analyze plasma cholesterol levels. The blood was immediately transferred to a tube containing 0.5M EDTA anticoagulant. It was mixed gently and centrifuged at 1000×g at 4° C. for 15 min. Plasma was aspirated from the centrifuged blood samples, quick frozen on dry ice and stored at −80° C. for later use.
Plasma cholesterol levels were determined using a commercial ELISA kit obtained from NovaTeinBio (BG-RAT11262). Standard protocol accompanied by the kit was used without any adjustments.

The next data set concerns MDA-MB-231 Dlux. Kind of data set: Orthotopic spontaneous metastasis breast model, whole body bioluminescence. In kind it is in vivo, female MF-1 nude mice. The note with it: for total flux, whole body bioluminescence: mono-Sulfestrol 60 mg/kg, di-Sulfestrol 80 mg/kg orally once a day. How it is done: Female MF-1 nude mice (HsdOla:MF1-Foxn1nu, Harlan, UK) were divided into 3 groups of each 8 mice (n=8):
The mice were 5-6 weeks old at the start of the study and were maintained in sterile isolators within a barriered unit illuminated by fluorescent lights set to give a 12 hour light-dark cycle (on 07.00, off 19.00). The room was air-conditioned to maintain an air temperature range of 23±2° C. Sterile irradiated 2019 rodent diet (Harlan Teklad UK, product code Q219DJ1R2) and autoclaved water were offered ad libitum.
The MDA-MB-231 Dlux cells were maintained in vitro in RPMI containing 2 mM L-Glut and (Life Technologies, UK) and 10% (v/v) heat-inactivated foetal bovine serum (Sigma, Poole, UK) at 37° C. in 5% CO2 and humidified conditions. Cells were treated with Zeocin once a week at 0.4 mg/mL.
On the day of initiation cells were harvested from semi-confluent monolayers with 0.05% Trypsin-EDTA, washed twice in the culture medium and counted. Cells with viability of >90% were re-suspended, for in vivo administration, in 1:1 PBS:Matrigel at 2×10^6 cells/0.1 mL. Prior to injection, the cell suspension was homogenized and 0.1 mL of cell suspension was drawn into a 1 mL syringe. The cell suspension was then injected orthotopically into the lower left-side 2nd mammary fat pad of each mouse under anaesthesia (Medetomidine/Ketamine).
On day 7 after initiation and every six days thereafter, the mice were injected (s.c.) with 150 mg/kg D-Luciferin. 10 minutes following administration of D-Luciferin mice were anaesthetised and 15 minutes after administration they were placed into an imaging chamber (Spectrum CT) and imaged for luminescence (ventral view; whole body and shielding of the primary tumor). Images were captured and processed by Living Image 4.3.1 software (Caliper LS, US.).
On day 7 after initiation mice were assigned to groups such that there was a uniform mean bioluminescent signal between the groups.

The conditions of data set [5]: cited from earlier work.
For data set [6] the following is noted: cited from earlier work. The source holds these as a separate data set.
Data set [7] is described as follows: Metabolites in plasma after oral and intravenous administration, LC-MS/MS. The note with it: 10 mg/kg oral and intravenous.
Experimental: Metabolites were identified after oral and intravenous administration of the compounds.
Each group consisted of three rats, giving a total of 12 animals. Compounds were dosed at 10 mg/kg for both oral and intravenous administration. A 0.9% saline solution was used as vehicle for oral and intravenous administration.
Prior to intravenous administration, the solution was filtered through a 0.22 μM filter. Oral dosing was performed using a oral gavage. Tail vein injection was used for intravenous administration.
At 0.5, 1, 2, 4, 6 and 8 hrs post administration, 0.25 ml blood was drawn from the animals and immediately transferred to prechilled microcentrifuge tubes containing 4 μl of K2-EDTA to prevent coagulation. Plasma was obtained by centrifugation of the plasma and stored at −70° C. until analysis. Plasma drawn from each individual rat was pooled according to the following schedule:
The pooled samples were analyzed using LC-MS/MS and the relative percentage of each metabolite in the pooled sample was measured on the basis of the mass spectrometric peak areas of the parent and its metabolites in the plasma.
For data set [8] the following is noted: orally administered, daily doses of 2 mg; cited from earlier work.
Setting [9] is: nothing added (STS active, CYP inactive), 5 μM.

Values joined by “and” are separate entries in the source; they are usually repeats but may differ in a detail not shown here. Equal entries are not always repeated.

As to “4,4′-(hex-3-ene-3,4-diyl)bis(4,1-phenylene) disulfate [Di-Sulfestrol]”, the “Absorbance (630 nm)” value in [1] (2.3 μM, high absorbance = low aggregation) is recorded as 0.260 ± 0.030; in data set [1] (4.7 μM) it was 0.253 ± 0.024; in data set [1] (9.4 μM) it was 0.266 ± 0.039; in data set [1] (18.75 μM), 0.254 ± 0.025; in [1] (37.5 μM), 0.260 ± 0.027; in data set [1] (75 μM) it was 0.264 ± 0.031. Besides, the “Absorbance (630 nm)” value in [1] (150 μM) stood at 0.266 ± 0.034. The “metabolism pathway in human liver microsomes (in words)” value in data set [2] is listed as “only metabolized by STS enzymes”. Moreover, the Clint in [2] (setting [9]) was found to be 31. This substance came in with a Contribution to metabolism in [2] (setting [9]) of 85%. This substance also showed a Half-life in data set [2] (setting [9]) of 45 min. The “Mono-Sulfestrol concentration in pooled plasma sample” value in data set [3] (intravenous) is 735.9 ng/ml and 1.7 μM; in data set [3] (oral), 261.3 ng/ml and 0.6 μM. For the same substance, the Mean bodyweight in [4] (Day 0, DES 1.5 mg/kg per day, Di-Sulfestrol 3 mg/kg per day, three doses a day) came to 387 ± 6.9; in data set [4] (Day 2), 381 ± 8.3; in [4] (Day 4) it was 368 ± 9.5; in data set [4] (Day 6) it was 357 ± 9.2; in data set [4] (Day 8) it was 348 ± 8.5; in [4] (Day 10), 344 ± 7.2. The Mean bodyweight in data set [4] (Day 12) is given as 341 ± 7.5; in data set [4] (Day 14) it was 333 ± 6.67. For the same substance, the “Cholesterol (plasma)” value in [4] (after 14 days treatment, 4 hrs past final dosing, DES 1.5 mg/kg per day, Di-Sulfestrol 3 mg/kg per day) was 12.1 ± 0.799 nmol/L. Besides, the “estrogenic activity in rats (in words)” value in [4] (lowering body weight and cholesterol levels) is given as “show estrogenic activity”. Further, the entries for the “total flux, whole body bioluminescence” value in the data set with MDA-MB-231 Dlux (Day 7 (before start of treatment)), in the data set on MDA-MB-231 Dlux (Day 13) and in the data set on MDA-MB-231 Dlux (Day 19) were 1.73 10^9 photons/second, 8.84 10^9 photons/second and 16.2 10^9 photons/second, respectively. The “effect on tumor progression (in words)” value in the data set with MDA-MB-231 Dlux (oral, MDA-MB-231 Dlux in mice) was “tumor progression inhibiting effect”. Also, the “tolerance (in words)” value in data set [5] (mice, intravenously injectable) was “well tolerated in mice”. Also, the “estrogenic activity (in words)” value in data set [5] (mouse, in vivo) was “has estrogenic activity”. For the same substance, in data set [6], the “water solubility (in words)” value is recorded as “water soluble”. For the same substance, the “metabolic fate in rat plasma (in words)” value in data set [7] is “mostly converted into Mono-Sulfestrol”.
As for stilbestrol sulfate, in [8], the “estrogenic activity relative to stilbestrol” value is 44%.
